Reference: ChEMBL document CHEMBL4330164, “Propolis Components from Stingless Bees Collected on South Sulawesi, Indonesia, and Their Xanthine Oxidase Inhibitory Activity” (J Nat Prod, 2019)

Biological target: Xanthine dehydrogenase/oxidase (Bos taurus, UniProt P80457)
Experiment: Inhibition of bovine milk xanthine oxidase assessed as reduction in uric acid production using xanthine as substrate after 10 mins by HPLC analysis; call rule not given here

Sequence of Xanthine dehydrogenase/oxidase (P80457 whole entry): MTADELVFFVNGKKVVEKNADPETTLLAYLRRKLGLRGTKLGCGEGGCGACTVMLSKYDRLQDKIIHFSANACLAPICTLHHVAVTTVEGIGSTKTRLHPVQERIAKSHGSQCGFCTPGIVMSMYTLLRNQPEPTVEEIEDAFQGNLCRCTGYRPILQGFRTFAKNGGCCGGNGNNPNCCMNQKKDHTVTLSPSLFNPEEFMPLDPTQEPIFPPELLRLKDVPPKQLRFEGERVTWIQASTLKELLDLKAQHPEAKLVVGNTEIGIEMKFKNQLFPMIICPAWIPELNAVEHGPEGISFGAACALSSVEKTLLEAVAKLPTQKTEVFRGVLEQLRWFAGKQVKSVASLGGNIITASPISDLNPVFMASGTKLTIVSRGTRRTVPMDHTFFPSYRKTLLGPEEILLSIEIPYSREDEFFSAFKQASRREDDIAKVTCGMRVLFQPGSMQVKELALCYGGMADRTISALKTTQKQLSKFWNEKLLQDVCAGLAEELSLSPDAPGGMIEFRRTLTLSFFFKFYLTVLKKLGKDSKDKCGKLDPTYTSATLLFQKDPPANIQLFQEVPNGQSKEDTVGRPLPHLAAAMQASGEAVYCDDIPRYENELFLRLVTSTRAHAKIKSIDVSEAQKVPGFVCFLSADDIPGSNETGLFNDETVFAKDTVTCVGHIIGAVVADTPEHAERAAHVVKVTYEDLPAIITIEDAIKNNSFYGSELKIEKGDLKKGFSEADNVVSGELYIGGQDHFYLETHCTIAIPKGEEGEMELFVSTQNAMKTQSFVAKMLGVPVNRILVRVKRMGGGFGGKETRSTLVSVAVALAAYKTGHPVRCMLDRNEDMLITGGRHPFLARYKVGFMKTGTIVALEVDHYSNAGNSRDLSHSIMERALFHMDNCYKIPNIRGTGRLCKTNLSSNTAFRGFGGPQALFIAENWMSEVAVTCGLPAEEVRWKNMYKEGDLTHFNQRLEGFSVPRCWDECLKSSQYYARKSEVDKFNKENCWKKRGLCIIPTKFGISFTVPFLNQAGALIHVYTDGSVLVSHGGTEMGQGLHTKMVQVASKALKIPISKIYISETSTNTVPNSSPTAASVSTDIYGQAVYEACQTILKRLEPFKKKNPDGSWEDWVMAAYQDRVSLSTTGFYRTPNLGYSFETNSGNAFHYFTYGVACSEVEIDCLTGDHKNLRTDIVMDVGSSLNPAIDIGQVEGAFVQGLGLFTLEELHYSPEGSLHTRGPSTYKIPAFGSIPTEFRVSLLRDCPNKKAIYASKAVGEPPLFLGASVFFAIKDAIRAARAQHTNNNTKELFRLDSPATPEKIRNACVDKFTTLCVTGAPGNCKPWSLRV

Row | Compound | inhibition (INH) (cattle, 10 min) | IC50
1 | COc1cc([C@@H]2c3c(cc4c(c3OC)OCO4)C[C@@H]3COC[C@H]32)cc2c1OCO2 | Active | –
2 | COc1cc(-c2c(O)c(=O)oc3cc(O)cc(O)c23)ccc1O | – | 3.9 µM
